# Reference: patent publication US20110135671A1, “PURINE DERIVATIVES FOR USE IN THE TREATMENT OF ALLERGIC, INFLAMMATORY AND INFECTIOUS DISEASES” (GLAXOSMITHKLINE LLC, priority 2008, published 2011)
# Test system: Interferon-α
# Assay: Induction of Interferon-α using cryopreserved human PBMCs
# Type: cell-based
# Conditions: PBMC, 24 h, normalised to 1 uM resiquimod, read-out: mean pEC50 for induction of Interferon-α (converted)
# Method: Assay for the Induction of Interferon-α using Cryopreserved Human Peripheral Blood Mononuclear Cells (PBMCs)
# Compounds were dissolved in DMSO. Serial 2-fold dilutions with DMSO were prepared and 0.25 μl dispensed into 384-well clear Greiner polypropylene plates.
# Blood samples of up to 200 ml were obtained from healthy human donors. Whole blood in 25 ml volumes was overlaid onto 15 ml Ficoll gradients in Leucosep tubes, and centrifuged at 1000 g for 20 min. Cells in the band at the plasma/histopaque interface were carefully removed and washed twice with PBS (centrifuged at 400 g for 5 min to harvest). The final pellet was resuspended in freezing medium (90% Heat-inactivated serum, 10% DMSO) to a cell concentration of 4×10^7 cells/ml. The resuspended cells were then cryopreserved (frozen) using a rate controlled freezer, and stored at −140° C. for up to 4 months.
# Incubation and Assay for Interferon-α
# Immediately prior to assay, vials of cryopreserved (frozen) PBMCs were thawed rapidly in a water bath at 37° C. A 1:10 dilution of the cells in trypan blue was prepared and counted. The PBMCs were then diluted in growth media [RPMI 1640 containing 10% fetal calf serum (invitrogen), Penicillin+Streptavidin (Gibco cat. # 25030-024, 1:50), L-Glutamine 2 mM, and 1000 units/ml recombinant human IFN-gamma (Preprotech catalogue #300-02)] to a density of 1×10^6 cells/ml, and 50 ul/well dispensed to 384-well clear Greiner polypropylene plates containing 0.25 μl DMSO or test compound in 0.25 μl DMSO. […] Plates were incubated for 24 h at 37° C. in 5% CO2.
# A multi-isoform immunoassay was used to quantify IFN-α in PBMC supernatants. Rabbit polyclonal antibody against human IFN-α (catalogue number 31101, Stratech Scientific) was diluted 1:10000 in assay buffer (RPMI 1640 containing 10% fetal calf serum, Invitrogen) and 20 μl was added to each well of an MSD (Meso-Scale Discovery) single small-spot 384-well GAR (goat anti-rabbit antibody coated) plate. The plate was incubated for 1 h at room temperature with vigorous shaking. Following three washes with PBS, 20 μl of cell supernatant were added to each well of the plate. The plate was then incubated for 1 h at room temperature with vigorous shaking. A pair of monoclonal antibodies to IFN-α (catalogue numbers 21100 and 21112, Stratech Scientific) were labelled with sulfo-TAG (MSD), diluted 1:1000 in assay buffer and 20 μl added to each well of the plate. The plate was further incubated for 1 h at room temperature with vigorous shaking. Following three washes with PBS, 30 μl of ×2 T buffer (MSD) was added to each well and the plate was read on an MSD Sector 6000 plate reader.
# Data were normalised to internal plate controls of 1 uM resiquimod (n=16) and DMSO (n=16). pEC50 values were derived by 4-parameter curve fit with IRLS in ActivityBase, from 11-point, two-fold serial dilution of test compounds.
row,Structure (SMILES),EC50 [µM]
1,"CCCCNc1nc(N)c2[nH]c(=O)n(CCCN3CCN(CC(C)C)CC3)c2n1 [Example 21, 6-Amino-2-(butylamino)-9-{3-[4-(2-methylpropyl)-1-piperazinyl]propyl}-7,9-dihydro-8H-purin-8-one]",< 3.16
2,"CCCCNc1nc(N)c2[nH]c(=O)n(CCN3CCN(C(C)C)CC3)c2n1 [Example 4, 6-Amino-2-(butylamino)-9-{2-[4-(1-methylethyl)-1-piperazinyl]ethyl}-7,9-dihydro-8H-purin-8-one]",< 3.16
3,"CCCCOc1nc(N)c2[nH]c(=O)n(CCCCN3CCN(CCC)CC3)c2n1 [Example 28, 6-Amino-2-(butyloxy)-9-[4-(4-propyl-1-piperazinyl)butyl]-7,9-dihydro-8H-purin-8-one]",< 3.16
4,"CCC[C@H](C)Oc1nc(N)c2[nH]c(=O)n(CCCCCN3CCN(C(C)(C)C)CC3)c2n1 [Example 53, 6-Amino-9-{5-[4-(1,1-dimethylethyl)-1-piperazinyl]pentyl}-2-{[(1S)-1-methylbutyl]oxy}-7,9-dihydro-8H-purin-8-one]",< 3.16
5,"CC[C@H](C)Oc1nc(N)c2[nH]c(=O)n(CCCCN3CCN(C(C)C)CC3)c2n1 [Example 68, 6-Amino-9-{4-[4-(1-methylethyl)-1-piperazinyl]butyl}-2-{[(1S)-1-methylpropyl]oxy}-7,9-dihydro-8H-purin-8-one]",< 3.16
6,"CCCCOc1nc(N)c2[nH]c(=O)n(CCCCCCN3CCN(CC)CC3)c2n1 [Example 56, 6-Amino-2-(butyloxy)-9-[6-(4-ethyl-1-piperazinyl)hexyl]-7,9-dihydro-8H-purin-8-one]",< 3.16
7,"CCCCOc1nc(N)c2[nH]c(=O)n(CCCCCN3CCN(CC4CC4)CC3)c2n1 [Example 65, 6-Amino-2-(butyloxy)-9-{5-[4-(cyclopropylmethyl)-1-piperazinyl]pentyl}-7,9-dihydro-8H-purin-8-one]",< 3.16
8,"CCCCNc1nc(N)c2[nH]c(=O)n(CCCN3CCN(C4CCCCC4)CC3)c2n1 [Example 25, 6-Amino-2-(butylamino)-9-[3-(4-cyclohexyl-1-piperazinyl)propyl]-7,9-dihydro-8H-purin-8-one]",< 3.16
9,"CCCCNc1nc(N)c2[nH]c(=O)n(CCCN3CCN(C)CC3)c2n1 [Example 16, 6-Amino-2-(butylamino)-9-[3-(4-methyl-1-piperazinyl)propyl]-7,9-dihydro-8H-purin-8-one]",< 3.16
10,"CCCCNc1nc(N)c2[nH]c(=O)n(CCCN3CCN(CCC)CC3)c2n1 [Example 18, 6-Amino-2-(butylamino)-9-[3-(4-propyl-1-piperazinyl)propyl]-7,9-dihydro-8H-purin-8-one]",< 3.16
11,"CCCCNc1nc(N)c2[nH]c(=O)n(CCCCN3CCN(CCC)CC3)c2n1 [Example 37, 6-Amino-2-(butylamino)-9-[4-(4-propyl-1-piperazinyl)butyl]-7,9-dihydro-8H-purin-8-one]",< 3.16
12,"CCCCOc1nc(N)c2[nH]c(=O)n(CCCCCN3CCN(C4CCCC4)CC3)c2n1 [Example 63, 6-Amino-2-(butyloxy)-9-[5-(4-cyclopentyl-1-piperazinyl)pentyl]-7,9-dihydro-8H-purin-8-one]",< 3.16
13,"CCCC[C@H](C)Oc1nc(N)c2[nH]c(=O)n(CCCCN3CCN(C(C)C)CC3)c2n1 [Example 69, 6-Amino-9-{4-[4-(1-methylethyl)-1-piperazinyl]butyl}-2-{[(1S)-1-methylpentyl]oxy}-7,9-dihydro-8H-purin-8-one]",< 3.16
14,"CCCCNc1nc(N)c2[nH]c(=O)n(CCCCN3CCN(C4CCCCC4)CC3)c2n1 [Example 44, 6-Amino-2-(butylamino)-9-[4-(4-cyclohexyl-1-piperazinyl)butyl]-7,9-dihydro-8H-purin-8-one]",< 3.16
15,"CCCCNc1nc(N)c2[nH]c(=O)n(CCCN3CCN(CC4CC4)CC3)c2n1 [Example 23, 6-Amino-2-(butylamino)-9-{3-[4-(cyclopropylmethyl)-1-piperazinyl]propyl}-7,9-dihydro-8H-purin-8-one]",< 3.16
